Test results: patent US7754742B2, “Imidazole carboxamides” (Eli Lilly and Company, priority 2008, dated 2010)

Columns and labels:
human mGluR2 receptor = target: T1, human mGluR2 receptor (Homo sapiens, UniProt Q14416); test: Functional in vitro activity at human mGluR2 receptor (FLIPR calcium response, potentiator mode); assay type: cell-based; settings: relative EC50; potentiation of glutamate EC10 response; cells expressing human mGluR2, rat EAAT 1 and Gα15
T1 construct: expressed in transfected cells; stably expresses human mGluR2, co-transfected with rat EAAT1 and Galpha15
T1 sequence (Q14416 19-872): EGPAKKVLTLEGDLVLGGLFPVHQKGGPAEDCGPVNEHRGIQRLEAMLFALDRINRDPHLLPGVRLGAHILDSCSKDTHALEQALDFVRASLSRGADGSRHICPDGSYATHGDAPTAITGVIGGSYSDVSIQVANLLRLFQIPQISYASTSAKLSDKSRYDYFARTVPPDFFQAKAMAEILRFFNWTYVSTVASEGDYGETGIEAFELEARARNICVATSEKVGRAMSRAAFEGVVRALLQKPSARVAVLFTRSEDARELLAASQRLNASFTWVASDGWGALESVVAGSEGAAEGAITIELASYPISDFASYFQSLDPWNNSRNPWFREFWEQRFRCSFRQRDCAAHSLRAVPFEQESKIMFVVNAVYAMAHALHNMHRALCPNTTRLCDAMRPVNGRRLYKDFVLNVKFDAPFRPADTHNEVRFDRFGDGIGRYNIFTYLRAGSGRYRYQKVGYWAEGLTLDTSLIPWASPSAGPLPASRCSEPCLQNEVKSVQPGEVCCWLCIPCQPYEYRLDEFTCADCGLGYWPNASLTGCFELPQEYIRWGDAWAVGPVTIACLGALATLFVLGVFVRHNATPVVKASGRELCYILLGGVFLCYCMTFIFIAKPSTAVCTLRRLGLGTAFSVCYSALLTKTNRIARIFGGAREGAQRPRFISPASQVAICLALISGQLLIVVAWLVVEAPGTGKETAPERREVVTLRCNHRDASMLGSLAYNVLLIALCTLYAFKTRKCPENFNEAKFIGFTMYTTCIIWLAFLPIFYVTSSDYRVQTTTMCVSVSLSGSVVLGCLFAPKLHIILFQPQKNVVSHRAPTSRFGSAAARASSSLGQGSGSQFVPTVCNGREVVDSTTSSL
Source text: Functional in vitro activity at human mGluR2 receptor Cell lines stably expressing the human mGluR2 receptor (see for example Desai, Burnett, Mayne, Schoepp, Mol. Pharmacol. 48, 648-657, 1995) co-transfected with the rat glutamate transporter EAAT 1 (Excitatory Amino Acid Transporter 1) and the Gα15 subunit were used for these studies. The expression of Gα15 allows this Gi-coupled receptors to couple to phospholipase C, resulting in the ability to measure receptor activation by a fluorometric calcium response assay. […]
Intracellular calcium levels were monitored before and after the addition of compounds using a Fluorometric Imaging Plate Reader (FLIPR, Molecular Devices, Union City, Calif. USA). […] The results were analyzed (GraphPad® Prism v4, Graphpad Software, LaJolla, Calif., USA) to calculate the concentrations of glutamate needed to induce the EC10 responses.
Compounds were tested in a two-addition FLIPR assay using a 10-point concentration response profile starting at a final concentration of 25 μM (agonist mode) or 12.5 μM (potentiator mode). […] After taking an initial fluorescent read of the cell plate for 5 seconds, compound was added to the cell plate (50 uL per well). […]
The maximal response was defined as that induced by ECmax (100 μM glutamate). […] Agonist effects were quantified as percent stimulation induced by compound alone relative to the maximal glutamate response. […]

[1] = tested on: Male Holtzman Sprague-Dawley rats; test: Positive differential reinforcement in rats (DRL-72 second schedule); assay type: in vivo, rat; settings: reinforced responses divided by total responses, 10 mg/kg, IP, dose 0 group 0.25
Source text: The differential reinforcement of low rates-72 second (DRL-72) schedule has been extensively used as a screen for clinically effective antidepressant agents including imipramine, fluoxetine, paroxetine and others (Sokolowski J D, Seiden L S. 1999. The behavioral effects of sertraline, fluoxetine, and paroxetine differ on the differential-reinforcement-of-low-rate 72-second operant schedule in the rat. Psychopharm (Berl). 147(2): 153-61). […] As such, compounds which show positive result in differential reinforcement in animals are believed to be useful in treating depression in humans.
Male Holtzman Sprague-Dawley rats are water restricted (water available 20′ per day following the test session) and trained to lever press for a 4″ access to 0.025 ml of water for each correct response during daily 60 minute sessions. All testing takes place on weekdays only. After successful lever press training, rats are then required to respond under a DRL-24 second schedule, where only lever presses that are separated by 24 seconds are reinforced. Upon stable responding on a DRL-24 second schedule, rats are trained on a DRL-72 second schedule until responding stabilizes at approximately 15% efficiency. […] Response efficiency is recorded as number of reinforced responses divided by total number of responses. […]

Male Fischer F-344 rats = test: Attenuation of stress-induced hyperthermia in rats; assay type: in vivo, rat; settings: p.o., 4 hr pretreatment
Source text: In many anxiety disorders, hyperthermia occurs as part of the pathology and is considered a symptom of the disease. Compounds which attenuate stress-induced hyperthermia in animals are believed to be useful in treating anxiety disorders in humans.
The conventional and minimally-invasive method for analyzing stress-induced hyperthermia is by measuring body temperature, and stress-induced increases in body temperature, via rectal thermometer. Male Fischer F-344 rats (Harlan, Indianapolis, Ind., USA) weighing between 275-350 g are tested. All animals are individually-housed with food and automated water available ad libitum, and maintained on a 12 h light/dark cycle (lights on at 06:00). Animals are fasted for approximately 12-18 hours before the experiment, which is conducted during the light phase. […]
After the pretreatment period, rats are taken individually to a brightly lit adjacent room where baseline body temperatures are determined by insertion of a rectal probe lubricated with mineral oil. Body temperature is assessed using a PHYSITEMP BAT-12® Microprobe Thermometer with a PHYSITEMP RET-2® rat rectal probe (Physitemp Instruments Inc., Clifton, N.J., USA). […] Ten minutes later a second body temperature measurement is recorded (T2). […]

melting point: 164.7 °C
EC50 (human mGluR2 receptor): 22.5 nM
Compound: CC(C)C(=O)c1ccc(OCc2ccc(CNC(=O)c3cn(C)cn3)cc2)c(C(F)(F)F)c1O [Example 1, 1-Methyl-1H-imidazole-4-carboxylic acid 4-(3-hydroxy-4-isobutyryl-2-trifluoromethyl-phenoxymethyl)-benzylamide]
Response Efficiency [1]: 0.56
T35 dose (dose producing a 35% reduction in stress-induced hyperthermic response relative to vehicle) (Male Fischer F-344 rats): 3.2 mg/kg
